Laboratory results: US8617567B2, “Fungus polyose composition with immunity enhancing effect and application thereof” (priority 2009, dated 2013)

Tested on: S180 cancer bearing mice
Settings: S180 NIH mice, 100 mg/kg intraperitoneal, 2 times per week, 11 days
Procedure: 85 healthy NIH mice, unisexual, were selected. […] The other 55 mice were used for solid tumor test.
At the beginning of the experiment, 20 mice with ascites were selected and sacrificed by pulling the cervical vertebrae on a sterilized bench, then the abdomens were sterilized with iodine tinctur, 75% alcohol q-tips in turn. The ascites were collected with 3 ml asepsis disposable syringe and put in asepsis dry conical flask and stored on the ice. […] It should be noted that the ascites collected were a milk-yellow or milk-white fluid, and the ascites with a larger quantity of RBC should be discarded. After the ascites were diluted 100 times, the cell density was measured to about 2×10^7/ml by the method of Trypan Blue count. The ascites were diluted with saline. The diluted ascites were subcutaneously injected, at a dosage of 0.2 ml, into the right armpit of each mouse.
After all qualified 55 mice were injected, they were randomly divided into 5 groups: the blank control group, the compound fungus polyose low-, medium-, and high-dosage groups, and the positive cyclophosphamide control group, respectively. 11 mice were in each group. […] After 11 days of administration, all mice were sacrificed and their body weights, tumor weights, thymic weights, and spleen weights were measured. After the end of the experiment, statistical treatment of data was carried out to compare the difference among the groups. Thymus (spleen) index=Thymus (spleen) weight/Body weight×10 g Body Weight Changes=Body weight after administration−Body weight before administration Inhibition ratio %=(Tumor weight in blank group−Tumor weight in treatment group)/Tumor weight in blank group×100% 4.2 Mice Immune Function Test 4.2.1 Mice Carbon Clearance Test

O=P1(N(CCCl)CCCl)NCCCO1 (centres unmarked) [Cyclophosphamide]
Condition of thymus and spleen: obvious atrophy | Spleen index: 0.0322 ± 0.0190 g/10 g | Thymus index: 0.0117 ± 0.0041 g/10 g | Tumor weight: 0.0502 ± 0.0253 g | Anti-tumor ratio (vs blank control): 95.9%
